Test results from ChEMBL document CHEMBL1134436, “Significance of hydrogen bonding at the S(1)' subsite of calpain I” (Bioorg Med Chem Lett, 2001).

The molecules below were run against T1, Calpain-1 catalytic subunit (Sus scrofa, UniProt P35750) (assay: Binding affinity was evaluated against porcine erythrocyte Calpain 1 at the S1 subsite of the enzyme).
T1 sequence (P35750 whole entry): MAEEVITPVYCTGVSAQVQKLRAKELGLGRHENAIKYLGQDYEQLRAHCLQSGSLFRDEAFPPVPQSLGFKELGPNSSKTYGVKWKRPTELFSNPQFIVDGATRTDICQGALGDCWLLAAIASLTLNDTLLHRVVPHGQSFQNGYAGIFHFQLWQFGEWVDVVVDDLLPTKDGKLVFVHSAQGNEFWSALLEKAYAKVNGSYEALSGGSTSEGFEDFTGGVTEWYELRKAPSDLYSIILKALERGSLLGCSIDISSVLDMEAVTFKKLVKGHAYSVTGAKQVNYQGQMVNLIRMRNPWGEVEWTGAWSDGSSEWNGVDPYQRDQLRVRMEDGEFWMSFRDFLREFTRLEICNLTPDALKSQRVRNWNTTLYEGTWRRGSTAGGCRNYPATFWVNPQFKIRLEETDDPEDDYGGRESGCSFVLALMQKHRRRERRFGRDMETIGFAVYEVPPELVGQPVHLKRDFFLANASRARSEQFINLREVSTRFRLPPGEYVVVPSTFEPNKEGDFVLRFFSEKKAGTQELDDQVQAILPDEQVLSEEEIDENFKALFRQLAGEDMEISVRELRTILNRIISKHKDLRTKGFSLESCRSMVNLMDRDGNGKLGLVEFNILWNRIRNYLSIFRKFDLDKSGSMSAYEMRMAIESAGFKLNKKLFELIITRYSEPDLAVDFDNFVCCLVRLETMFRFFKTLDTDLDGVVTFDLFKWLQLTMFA

| Ki [nM] | Structure (SMILES) |
| --- | --- |
| 62 | CCONC(=O)C(=O)[C@H](Cc1ccccc1)NC(=O)[C@H](CC(C)C)NC(=O)OCc1ccccc1 |
| 200 | CCNC(=O)C(=O)[C@H](Cc1ccccc1)NC(=O)[C@H](CC(C)C)NC(=O)OCc1ccccc1 |
| 107 | CCCNC(=O)C(=O)[C@H](Cc1ccccc1)NC(=O)[C@H](CC(C)C)NC(=O)OCc1ccccc1 |
| 72 | CC(C)C[C@H](NC(=O)OCc1ccccc1)C(=O)N[C@@H](Cc1ccccc1)C(=O)C(=O)NCCc1ccccc1 |
| 750 | CCON(C)C(=O)C(=O)[C@H](Cc1ccccc1)NC(=O)[C@H](CC(C)C)NC(=O)OCc1ccccc1 |
| 28000 | CCN(OCc1ccccc1)C(=O)C(=O)[C@H](Cc1ccccc1)NC(=O)[C@H](CC(C)C)NC(=O)OCc1ccccc1 |
| 45 | CC(C)C[C@H](NC(=O)OCc1ccccc1)C(=O)N[C@@H](Cc1ccccc1)C(=O)C(=O)NOCc1ccccc1 |
| 673 | CC(C)C[C@H](NC(=O)OCc1ccccc1)C(=O)N[C@@H](Cc1ccccc1)C(=O)C(=O)N(C)OCc1ccccc1 |
| 76000 | CCN(CC)C(=O)C(=O)[C@H](Cc1ccccc1)NC(=O)[C@H](CC(C)C)NC(=O)OCc1ccccc1 |
